Assay results published in patent US8039504B2 (priority 2003, dated 2011).
Converted amounts (≈) assume the structure as drawn.

What was measured:
[1] = system: Vaccinia virus (NYCBH); assay: microbe, parasite or virus in culture; assay type: cell-based; conditions: Orthopoxvirus vaccinia, Vero, 72 h, read-out: Vaccinia EC50
[2] = system: wild type cowpox virus; assay: microbe, parasite or virus in culture; assay type: cell-based; conditions: read-out: Cowpox EC50
[3] = system: monkeypox virus (Zaire (V79-1-005-scab)); assay: microbe, parasite or virus in culture; assay type: cell-based; conditions: read-out: Monkeypox EC50
[4] = system: camelpox; assay: microbe, parasite or virus in culture; assay type: cell-based; conditions: read-out: Camelpox EC50
[5] = physchem

## O=C(NN1C(=O)[C@@H]2C3C=CC(C4CC43)[C@@H]2C1=O)c1ccc(C(F)(F)F)cc1 (stereo partly shown) [Example 1, 4-Trifluoromethyl-N-(3,3a,4,4a,5,5a,6,6a,- octahydro-1,3-dioxo-4,6-ethenocycloprop[f]isoindol-2(1H)-yl)-benzamide]
[1]
  EC50: < 500 nM
[2]
  EC50: < 500 nM
[3]
  EC50: < 500 nM
[4]
  EC50: < 500 nM
[5]; aqueous with cosolvent or surfactant or cyclodextrin, ST-246 Solubility
  solubility: 68.7 µg/mL (≈ 183 µM)
[5]; organic solvent or mixture, ST-246 Solubility
  solubility: 60800 µg/mL (≈ 162000 µM)
[5]; organic solvent or mixture, Solubility in organic solvents
  solubility: 60000 µg/mL (≈ 159000 µM)
[5]; pH 6.8, aqueous buffer, ST-246 Solubility
  solubility: 7 µg/mL (≈ 18.6 µM)
[5]; simulated gastric fluid, ST-246 Solubility
  solubility: 37.5 µg/mL (≈ 99.6 µM)
[5]; water, ST-246 Solubility
  solubility: 26 µg/mL (≈ 69.1 µM)
